This assay concerns LL/2 lung cancer tumor endothelial cells. Kind of assay: Lung LL2 ex vivo model of tumor angiogenesis. It counts as cell-based, mouse. The settings on record: for 48 hrs (morphology observations): LL/2 tumor endothelial cells; for Cell death: drug treatment for two days, ratio of red area to total endothelial cell area. In outline: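 LL2 mouse tumor fragments (~0.075 mm³) embedded in Matrigel and cultured in endothelial growth medium at 37 °C until endothelial outgrowth (~4 days) before treatment. Cell death assessed e.g. 48 h after drug by fluorescein diacetate (live)/propidium iodide (dead) staining and red/green fluorescence imaging.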

[1] abbreviates: Mus musculus, Endothelial cell, 48 h, read-out: Cell death.

For the compound `CCCCCCCOc1ccc(S(=O)(=O)c2cnc3ccc(SC)cc3c2N2CCN(CCN3CCCC3)CC2)cc1` [Compound 272], for the setting “20 μm”, the “48 hrs (morphology observations)” value is “* (50% or less of cells vesicularize in cell shape)” and the Cell death was 20%.

For the compound `O=S(=O)(c1ccc(OC(F)(F)F)cc1)c1cnc2ccc(OC(F)(F)F)cc2c1N1CCC(N2CCCCC2)CC1` [Compound 120], under “20 μm”, the “48 hrs (morphology observations)” value is recorded as 0. Further, the cytotoxicity at 20 µM under setting [1] is 5%.

Turning to `CCCCCCCCCCCCCCOc1ccc(S(=O)(=O)c2cnc3ccc([S+](C)[O-])cc3c2N2CCC(N3CCC(N4CCCC(O)C4)CC3)CC2)cc1F` (stereo not shown) [Compound 364], under “20 μm”, the “48 hrs (morphology observations)” value is on record as “*** (more than 50% but less than 100% of endothelial cells vesicularize in cell shape)”. Further, the cytotoxicity at 20 µM under setting [1] was determined as 30%.

With `CCCCOc1ccc(S(=O)(=O)c2cnc3ccc(SC)cc3c2N2CCC(N3CCCN(C)CC3)CC2)cc1` [Compound 234], for the setting “40 μm”, the “48 hrs (morphology observations)” value is on record as “*** (more than 50% but less than 100% of endothelial cells vesicularize in cell shape)” and the Cell death was found to be 100%.

Regarding `CCCCOc1ccc(S(=O)(=O)c2cnc3ccc(OC(F)(F)F)cc3c2N2CC[S+]([O-])CC2)cc1` [Compound 197], under “40 μm”, the “48 hrs (morphology observations)” value was 0 and the Cell death is listed as 20%.

For the compound `COc1ccc(S(=O)(=O)c2cnc3ccc(C(=O)N(C)C)cc3c2N2CCC(N3CCCCC3)CC2)cc1` [Compound 331], where the note is “40 μm”, the “48 hrs (morphology observations)” value is on record as 0 and the Cell death worked out at 10%.

Consider `CCCCCCCOc1ccc(S(=O)(=O)c2cnc3ccc([S+](C)[O-])cc3c2N2CCN(CCN3CCCC3)CC2)cc1` (stereo not shown) [Compound 276], for which, under “20 μm”, the “48 hrs (morphology observations)” value is on record as “*** (more than 50% but less than 100% of endothelial cells vesicularize in cell shape)” and the Cell death came out at 100%.

In the case of `CCOC(=O)c1ccc2ncc(S(=O)(=O)c3ccc(OC)cc3)c(-n3cnnn3)c2c1` [Compound 185], under “10 μm”, the “48 hrs (morphology observations)” value is reported as “* (50% or less of cells vesicularize in cell shape)” and the Cell death came out at 30%.

As to `CCOC(=O)c1ccc2ncc(S(=O)(=O)c3ccc(OC)cc3)c(N3CCCN(CCN4CCCC4)CC3)c2c1` [Compound 180], for the setting “10 μm”, the “48 hrs (morphology observations)” value was “*** (more than 50% but less than 100% of endothelial cells vesicularize in cell shape)” and the Cell death was 70%.

As to `CCCCOc1ccc(S(=O)(=O)c2cnc3ccc(SC)cc3c2N2CCC(N3CCCC3CO)CC2)cc1` (stereo not shown) [Compound 350], the “48 hrs (morphology observations)” value (40 μm) was found to be 0. Also, the cytotoxicity at 40 µM under setting [1] was 20%.

On to `CCCCCCCCCCCCOc1ccc(S(=O)(=O)c2cnc3ccc([S+](C)[O-])cc3c2N2CCC(N3CCN(CCO)CC3)CC2)cc1F` (stereo not shown) [Compound 362], for which, where the note is “20 μm”, the “48 hrs (morphology observations)” value is “*** (more than 50% but less than 100% of endothelial cells vesicularize in cell shape)” and the Cell death turned out to be 20%.

For `CCOC(=O)c1ccc2ncc(S(=O)(=O)c3ccc(CC)cc3)c(-n3nnc4ccccc43)c2c1` [Compound 133], under “20 μm”, the Cell death is 10%.

Consider `CC(C)CCCC(C)CCOc1ccc(S(=O)(=O)c2cnc3ccc([S+](C)[O-])cc3c2N2CCC(N3CCN(CCO)CC3)CC2)cc1` (stereo not shown) [Compound 284], for which, under “10 μm”, the “48 hrs (morphology observations)” value is listed as 0 and the Cell death turned out to be 10%.

Consider `CCCCCCCOc1ccc(S(=O)(=O)c2cnc3ccc(SC)cc3c2N2CCN(CC3CCN(Cc4ccccc4)CC3)CC2)cc1` [Compound 275], for which, where the note is “20 μm”, the “48 hrs (morphology observations)” value worked out at 0 and the Cell death is listed as 5%.

Take `CCCCOc1ccc(S(=O)(=O)c2cnc3ccc(C(=O)OCC)cc3c2N2CCC(N3CCSCC3)CC2)cc1` [Compound 217]: where the note is “40 μm”, the “48 hrs (morphology observations)” value is given as 0 and the Cell death amounted to 30%.

As to `CCCCOc1ccc(S(=O)(=O)c2cnc3ccc(C(=O)NC4C(O)O[C@H](CO)[C@@H](O)[C@@H]4O)cc3c2N2CCCN(C)CC2)cc1` (stereo partly shown) [Compound 193], under “40 μm”, the “48 hrs (morphology observations)” value was determined as 0. The cytotoxicity at 40 µM under setting [1] was 30%.

Consider `COc1ccc(S(=O)(=O)c2cnc3cc(OC)c(OC)cc3c2N2CCC(O)(c3ccccc3)CC2)cc1` [Compound 308], for which, where the note is “40 μm”, the “48 hrs (morphology observations)” value was found to be 0 and the Cell death stood at 20%.

As for `CCCCCCCCCCOc1ccc(S(=O)(=O)c2cnc3ccc([S+](C)[O-])cc3c2N2CCC(N3CCN(CCO)CC3)CC2)cc1F` (stereo not shown) [Compound 291], for the setting “20 μm, (24 hrs)”, the “Cell death, read at 24 hrs” value turned out to be 10% and the “Endothelial cell morphology score at 24 hrs” value is given as “* (50% or less of cells vesicularize in cell shape)”.

Take `CCCCCCCOc1ccc(S(=O)(=O)c2cnc3ccc(SC)cc3c2N2CCC(N3CCN(C)CC3)CC2)cc1` [Compound 246]: where the note is “20 μm”, the “48 hrs (morphology observations)” value is given as “*** (more than 50% but less than 100% of endothelial cells vesicularize in cell shape)” and the Cell death was determined as 95%.

With `COc1ccc(S(=O)(=O)c2cnc3ccc(S(C)(=O)=O)cc3c2NN2CCN(C)CC2)cc1` [Compound 228], under “40 μm”, the “48 hrs (morphology observations)” value amounted to 0 and the Cell death amounted to 5%.

For `CCCCOc1ccc(S(=O)(=O)c2cnc3ccc(C(=O)OCC)cc3c2N2CCC(N3CCN(C)CC3)CC2)cc1` [Compound 172], under “40 μm”, the “48 hrs (morphology observations)” value is “**** (100% of endothelial cells vesicularize in cell shape and look flattened in morphology (indicating disintegration of the cell body))”; the Cell death is given as 100%.

Consider `COc1ccc(C2CCN(c3c(S(=O)(=O)c4ccc(OC)cc4)cnc4cc(OC)c(OC)cc34)CC2)cc1` [Compound 311], for which, under “40 μm”, the “48 hrs (morphology observations)” value was determined as 0 and the Cell death was 30%.

In the case of `CCOC(=O)c1ccc2ncc(S(=O)(=O)c3ccc(OC)cc3)c(NN3CCN(C)CC3)c2c1` [Compound 225], under “40 μm”, the “48 hrs (morphology observations)” value came to 0 and the Cell death was found to be 40%.

For the compound `CCCCCCCOc1ccc(S(=O)(=O)c2cnc3ccc([S+](C)[O-])cc3c2N2CCN(C3CCN(CC)CC3)CC2)cc1` (stereo not shown) [Compound 277], the cytotoxicity at 10 µM under setting [1] is 60%.

As to `CCc1ccc(S(=O)(=O)c2cnc3ccc(OC(F)(F)F)cc3c2NN2CCOCC2)cc1` [Compound 126], for the setting “20 μm”, the “48 hrs (morphology observations)” value is given as 0 and the Cell death came out at 10%.

For `CCCCCCCOc1ccc(S(=O)(=O)c2cnc3ccc(SC)cc3c2N2CCC(N3CCCN(C)CC3)CC2)cc1` [Compound 249], for the setting “20 μm”, the “48 hrs (morphology observations)” value is reported as “*** (more than 50% but less than 100% of endothelial cells vesicularize in cell shape)” and the Cell death is given as 60%.

With `CCc1ccc(S(=O)(=O)c2cnc3ccc(OC(F)(F)F)cc3c2-n2cccn2)cc1` [Compound 109], for the setting “20 μm”, the “48 hrs (morphology observations)” value came to 0 and the Cell death was 0%.

For `CCc1ccc(S(=O)(=O)c2cnc3ccc(OC(F)(F)F)cc3c2N2CCC(N(CC)CC)CC2)cc1` [Compound 103], where the note is “20 μm”, the “48 hrs (morphology observations)” value was determined as 0 and the Cell death came to 10%.

As for `CCOC(=O)c1ccc2ncc(S(=O)(=O)c3ccc(OC)cc3)c(N3CCC(N4CCN(C)CC4)CC3)c2c1` [Compound 171], for the setting “40 μm”, the “48 hrs (morphology observations)” value is 0 and the Cell death was 40%.

For `CCCCCCCCCCCCCCOc1ccc(S(=O)(=O)c2cnc3ccc([S+](C)[O-])cc3c2N2CCC(N3CCN(CCO)CC3)CC2)cc1` (stereo not shown) [Compound 339], under setting [1], the cytotoxicity at 20 µM was found to be 50%.

Regarding `CCOC(=O)c1ccc2ncc(S(=O)(=O)c3ccc(OC)cc3)c(N3CCC(N4CCCC(O)C4)CC3)c2c1` (stereo not shown) [Compound 174], for the setting “40 μm”, the “48 hrs (morphology observations)” value turned out to be 0 and the Cell death stood at 30%.

`COc1ccc(S(=O)(=O)c2cnc3ccc([N+](=O)[O-])cc3c2N2CCC(N3CCCCC3)CC2)cc1` [Compound 114]: under “20 μm”, the “48 hrs (morphology observations)” value was 0 and the Cell death was 5%.

`CCCCOc1ccc(S(=O)(=O)c2cnc3ccc(S(C)(=O)=O)cc3c2N2CCC(N3CCC(O)CC3)CC2)cc1` [Compound 170]: for the setting “20 μm”, the “48 hrs (morphology observations)” value is 0 and the Cell death was 10%.

Turning to `COc1ccc(S(=O)(=O)c2cnc3cc(OC)c(OC)cc3c2N2CCC(=O)N(C)CC2)cc1` [Compound 328], for the setting “40 μm”, the “48 hrs (morphology observations)” value came out at 0 and the Cell death came out at 30%.

As to `CCCCOc1ccc(S(=O)(=O)c2cnc3ccc(C(=O)OCC)cc3c2N2CCC(N3CCCC(O)C3)CC2)cc1` (stereo not shown) [Compound 177], where the note is “40 μm”, the “48 hrs (morphology observations)” value is “**** (100% of endothelial cells vesicularize in cell shape and look flattened in morphology (indicating disintegration of the cell body))”; the Cell death turned out to be 100%.

Turning to `CCCCOc1ccc(S(=O)(=O)c2cnc3ccc(C(=O)OCC)cc3c2N2CCC(N3CC[S+]([O-])CC3)CC2)cc1` [Compound 244], the “48 hrs (morphology observations)” value (40 μm) was 0. Further, the cytotoxicity at 40 µM under setting [1] turned out to be 20%.

Consider `CCN(c1c(S(=O)(=O)c2ccc(OC)cc2)cnc2cc(OC)c(OC)cc12)C(C)C` [Compound 294], for which, where the note is “40 μm”, the “48 hrs (morphology observations)” value is “* (50% or less of cells vesicularize in cell shape)” and the Cell death is 50%.

With `CCOC(=O)c1ccc2ncc(S(=O)(=O)c3ccc(CC)cc3)c(-n3ccnc3)c2c1` [Compound 134], under “20 μm”, the “48 hrs (morphology observations)” value was “**** (100% of endothelial cells vesicularize in cell shape and look flattened in morphology (indicating disintegration of the cell body))”.

For the compound `CCCCOc1ccc(S(=O)(=O)c2cnc3ccc(SC)cc3c2N2CCC(=O)N(C)CC2)cc1` [Compound 357], the “48 hrs (morphology observations)” value (40 μm) was 0. Further, the cytotoxicity at 40 µM under setting [1] came to 0%.

With `CCCCCCCCCCOc1ccc(S(=O)(=O)c2cnc3ccc([S+](C)[O-])cc3c2N2CCC(N3CCN(CCO)CC3)CC2)cc1` (stereo not shown) [Compound 268], where the note is “20 μm”, the “48 hrs (morphology observations)” value is recorded as “*** (more than 50% but less than 100% of endothelial cells vesicularize in cell shape)” and the Cell death is recorded as 50%.

The values are drawn from US20250230226A1, “PLXDC1/PLXDC2 ACTIVATORS AND THEIR USE IN THE TREATMENT OF BLOOD VESSEL DISORDERS” (THE REGENTS OF THE UNIVERSITY OF CALIFORNIA, priority 2019, published 2025).
